IC50 data for 25 molecules are collected here from patent publication US20260008783A1, “MODULATORS OF FSHR AND USES THEREOF” (Celmatix Inc., priority 2022, published 2026).

The target in this assay is T1, Follicle Stimulating Hormone Receptor (FSHR) (Homo sapiens, UniProt P23945).
T1 construct: HA (N); expressed in transfected cells; host or cells: CHO-K1, transient transfection, pHM6 vector (CMV promoter)
T1 sequence (P23945 18-695): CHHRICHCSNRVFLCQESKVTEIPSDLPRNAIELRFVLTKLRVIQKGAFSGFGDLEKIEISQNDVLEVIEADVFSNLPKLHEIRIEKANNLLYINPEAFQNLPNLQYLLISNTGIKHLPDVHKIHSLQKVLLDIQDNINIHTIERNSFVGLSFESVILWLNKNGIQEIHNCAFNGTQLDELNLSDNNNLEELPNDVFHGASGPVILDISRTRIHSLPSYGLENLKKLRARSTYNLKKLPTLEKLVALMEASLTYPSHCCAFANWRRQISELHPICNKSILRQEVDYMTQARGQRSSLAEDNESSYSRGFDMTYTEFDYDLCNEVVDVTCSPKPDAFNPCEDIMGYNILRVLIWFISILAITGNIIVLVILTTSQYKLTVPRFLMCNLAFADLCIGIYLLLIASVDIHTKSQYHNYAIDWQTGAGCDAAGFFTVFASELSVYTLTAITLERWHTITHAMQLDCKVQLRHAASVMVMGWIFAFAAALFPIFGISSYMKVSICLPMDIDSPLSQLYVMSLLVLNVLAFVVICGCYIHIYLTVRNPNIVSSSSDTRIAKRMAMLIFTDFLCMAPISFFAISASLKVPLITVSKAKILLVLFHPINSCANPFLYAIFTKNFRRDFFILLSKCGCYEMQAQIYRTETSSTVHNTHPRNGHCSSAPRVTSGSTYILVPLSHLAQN
The assay is described as follows: HTRF cAMP agonist assay, FSHR, transiently transfected CHO-K1 cells. It is filed as cell-based. The settings on record: CHO-K1 cells transiently expressing human FSHR, read-out: IC50 FSHR LANCE CAMP. An excerpt:
Example 17. HTRF cAMP Agonist Assay Protocol (for FSHR, TSHR, LHCGR)
Mammalian expression vectors designed to express either Follicle Stimulating Hormone Receptor (FSHR), Thyroid Stimulating Hormone Receptor (TSHR), or Luteinizing Hormone/Choriogonadotropin Receptor (LHCGR), were generated with an HA-tag on the N-terminus. All constructs were expressed under a human cytomegalovirus (CMV) immediate early enhancer and promoter using the pHM6 expression vector. The protein coding region was confirmed by sequence analysis to be in-frame and of the expected sequence, matching the following accession numbers: FSHR NM_000145, TSHR NM_000369, and LHCGR NM_000233.
HTRF cAMP assays were performed using Chinese Hamster Ovary (CHO-K1) cell lines transiently expressing human FSH, TSH, and LHCG receptors. 48 hours before the assay, cells were washed with PBS and then dissociated from tissue culture flasks with 0.25% trypsin. Dissociated cells were quenched in full media (F-12K Medium Corning REF #10-025-CV, 10% Avantor Seradigm FB Essence Cat #10803-034, 1% Penicillin/Streptomycin Cytiva HyClone Cat #SV30010) and then collected by centrifugation at 290×g for 5 min. Cells were resuspended in full media and dispensed into 150 mm cell culture dishes (Nest Scientific Cat #715001), at 2.3×10^6 cells/flask. 7 hours later, cells were transfected using Lipofectamine transfection reagent (Invitrogen Cat #18324020). Briefly, 60 μL of lipofectamine was dispensed into 2 mL of Opti-MEM (Gibco Cat #31985070) and incubated for 5 minutes at room temperature. Then, the mixture was added onto […] of DNA and incubated for another 20 minutes at room temperature. Cells were washed with warm (37° C.) PBS. 17.5 mL of Opti-MEM was dispensed onto the cells, followed by addition of the Opti-MEM/lipofectamine/DNA mixture. Cells were incubated overnight in a 37° C., 5% CO2 cell incubator. 17-19 hours later, Opti-MEM was aspirated off the cells and replaced with full media. Cells were incubated for another 24 hours in a 37° C., 5% CO2 cell incubator.
On the day of the assay, cells were washed with PBS and then dissociated from tissue culture flasks with 0.25% trypsin. Dissociated cells were quenched in full media and then collected by centrifugation at 290×g for 5 min. Cells were resuspended in PBS^+/+ (Corning REF #20-030-CV) to a concentration of 2×10^5 cells/mL. 10 μL/well of cells (2,000 cells/well) were dispensed into 384-well Corning plates (REF #3825), in triplicate. Cells were incubated at room temperature for 2 hours.
Example FSHR Modulator compounds were diluted in assay buffer (PBS^+/+, 0.05% BSA Sigma-Aldrich A3059, 500 μM IBMX Sigma-Aldrich 15879) to 3.5× the final assay concentration. 4 μL of test agonist was added to the cells and incubated for 1 hour at room temperature. 10 μL of cAMP detection reagents (LANCE Ultra cAMP Detection Kit PerkinElmer TRF0264) were dispensed onto the cells and plates were incubated for 2 hours at room temperature (cAMP detection reagents were made according to the PerkinElmer kit protocol). Plates were read on an Envision plate reader following PerkinElmer guidelines.
Raw data for all assays was transmitted directly from plate readers into a database for processing. All assay plates contained both positive and negative control wells to allow for data normalization and scaling. In agonist assays, negative control wells contained assay buffer and positive control wells contained […] positive control (10 nM Follicle Stimulating Hormone Sigma-Aldrich F4021, 50 nM Thyroid Stimulating Hormone Sigma-Aldrich 869006, 50 nM Luteinizing Hormone MyBioSource MBS5308806, for their respective receptors). All control wells contained DMSO at a final assay concentration that matched the test compound wells. […]
Percent control data were analyzed by non-linear regression with a sigmoidal dose response algorithm in the database to yield potency and efficacy data.
In general terms: Time-resolved FRET reads energy transfer from a long-lived donor to a nearby acceptor.
With `COc1cc2c(cc1-c1cncc(C(N)=O)c1)-c1c(c(C(=O)N3CCNC(=O)C3(C)C)nn1-c1ccccn1)CC2` [Compound 15-01, 5-[3-(2,2-dimethyl-3-oxo-piperazine-1-carbonyl)-7-methoxy-1-(2-pyridyl)-4,5-dihydrobenzo[g]indazol-8-yl]pyridine-3-carboxamide], the IC50 (as a rule, the point on the concentration scale where inhibition reaches its midpoint) came out at 75.8 nM.
Then `COc1cc2c(cc1-c1cncc(C(N)=O)c1)-c1c(c(C(=O)N3CCOCC3(C)C)nn1-c1cc(Cl)cc(Cl)c1)C2` [Compound 5-01, 5-[1-(3,5-dichlorophenyl)-3-(3,3-dimethylmorpholine-4-carbonyl)-6-methoxy-4H-indeno[1,2-c]pyrazol-7-yl]pyridine-3-carboxamide], with 14.8 nM; and `COc1cc2ccc3c(C(=O)N(C)C(C)(C)C)nn(-c4cc(Cl)cc(Cl)c4)c3c2cc1-c1cncc(C(N)=O)c1` [Compound 6-06, N-tert-butyl-8-(5-carbamoyl-3-pyridyl)-1-(3,5-dichlorophenyl)-7-methoxy-N-methyl-benzo[g]indazole-3-carboxamide], with 13.6 nM.
Consider `COc1cc2c(cc1-c1ccn(C)n1)-c1c(c(C(=O)N3CCOCC3(C)C)nn1-c1ccsc1)OC2` [Compound 2-07], for which the IC50 was determined as 2410 nM.
Regarding `COc1cc2c(cc1-c1cccnc1)-c1c(c(C(=O)N3CCNC(=O)C3(C)C)nn1-c1cc(Cl)cc(Cl)c1)CC2` [Compound 15-03, 4-[1-(3,5-dichlorophenyl)-7-methoxy-8-(3-pyridyl)-4,5-dihydrobenzo[g]indazole-3-carbonyl]-3,3-dimethyl-piperazin-2-one], the IC50 came to 31.1 nM.
In the case of `COc1cc2c(cc1-c1cncc(C#N)c1)-c1c(c(C(=O)N3CCCN(C)CC3)nn1-c1cc(Cl)cc(Cl)c1)CC2` [Compound 8-07A, 5-(1-(3,5-dichlorophenyl)-7-methoxy-3-(4-methyl-1,4-diazepane-1-carbonyl)-4,5-dihydro-1H-benzo[g]indazol-8-yl)nicotinonitrile], the IC50 amounted to 3040 nM.
Take `COc1cc(C(N)=O)cc(-c2cc3c(cc2OC)COc2c(C(=O)N(C)C(C)(C)C)nn(-c4cc(Cl)cc(Cl)c4)c2-3)n1` [Compound 11-02, N-tert-butyl-8-(4-carbamoyl-6-methoxy-2-pyridyl)-1-(3,5-dichlorophenyl)-7-methoxy-N-methyl-5H-isochromeno[4,3-c]pyrazole-3-carboxamide]: the IC50 was determined as 42 nM.
With `COc1cc2c(cc1-c1cncc(C(N)=O)c1)-c1c(c(C(=O)N3CCN(C4CC4)CC3(C)C)nn1-c1cc(Cl)cc(Cl)c1)CC2` [Compound 8-62] the figure was 122 nM.
With `COc1cc2c(cc1-c1cncc(C(N)=O)c1)-c1c(c(C(=O)N3C4CC3CN(C(=O)OC(C)(C)C)C4)nn1-c1cc(Cl)cc(Cl)c1)CC2` [Compound 8-16A] the figure was 79.3 nM; with `CC[C@H]1COCCN1C(=O)c1nn(-c2cc(Cl)cc(Cl)c2)c2c1CCc1cc(OC)c(-c3cncc(C(N)=O)c3)cc1-2` [Compound 8-44], 2.04 nM; with `COc1cc2c(cc1-c1cncc(C(N)=O)c1)-c1c(c(C(=O)N3CCOCC3(C)C)nn1-c1ccncc1)CC2` [Compound 10-03], 190 nM.
With `COc1cc2c(cc1-c1cncc(C(N)=O)c1)-c1c(c(C(=O)N3CCNC(=O)C3(C)C)nn1-c1cc(Cl)cc(Cl)c1)S(=O)(=O)C2` [Compound 12-12] the figure was 228 nM; with `COc1cc2c(cc1-c1cncc(C(N)=O)c1)-c1c(c(C(=O)N(C)C(C)(C)C)nn1-c1cc(Cl)cc(Cl)c1)[S+]([O-])C2` (single isomer, unassigned) [Compound 3-06], 43.4 nM.
For `COc1cc2c(cc1-c1cncc(C(N)=O)c1)-c1c(c(C(=O)N3CCCN(C)CC3)nn1-c1cc(Cl)cc(Cl)c1)CC2` [Compound 8-07, 5-[1-(3,5-dichlorophenyl)-7-methoxy-3-(4-methyl-1,4-diazepane-1-carbonyl)-4,5-dihydrobenzo[g]indazol-8-yl]pyridine-3-carboxamide], the IC50 came out at 115 nM.
Turning to `COc1cc2c(cc1-c1cncc(C(N)=O)c1)-c1c(c(C(=O)N3C4CCC3CN(C)C4)nn1-c1cc(Cl)cc(Cl)c1)CC2` [Compound 8-15], the IC50 came to 33.2 nM.
Then `COc1cc2c(cc1-c1cncc(C#N)c1)-c1c(c(C(=O)N3CCOCC3(C)C)nn1-c1cc(Cl)cc(Cl)c1)CC2` [Compound 6-01B, 5-[1-(3,5-dichlorophenyl)-3-(3,3-dimethylmorpholine-4-carbonyl)-7-methoxy-4,5-dihydrobenzo[g]indazol-8-yl]pyridine-3-carbonitrile], with 33.3 nM.
Then `COc1cc2c(cc1-c1cncc(C(N)=O)c1)-c1[nH]nc(C(=O)N3CCOCC3(C)C)c1CC2` [Compound 9-01], with 1790 nM; and `COc1cc2c(cc1-c1cncc(C(N)=O)c1)-c1c(c(C(=O)N(C)C3CC3)nn1-c1cc(Cl)cc(Cl)c1)CC2` [Compound 8-39], with 15.5 nM; and `COc1cc2c(cc1-c1cncc(C(N)=O)c1)-c1c(c(C(=O)N3[C@@H]4CC[C@H]3CN(C)C4)nn1-c1cc(Cl)cc(Cl)c1)CC2` [Compound 8-18], with 18 nM.
Then `COc1cc2c(cc1-c1cncc(C(N)=O)c1)-c1c(c(C(=O)N3CCC(=O)NCC3(C)C)nn1-c1cc(Cl)cc(Cl)c1)CC2` [Compound 8-04A, 5-[1-(3,5-dichlorophenyl)-3-(2,2-dimethyl-5-oxo-1,4-diazepane-1-carbonyl)-7-methoxy-4,5-dihydrobenzo[g]indazol-8-yl]pyridine-3-carboxamide], with 9.79 nM; and `COc1cc2c(cc1-c1cncc(C(N)=O)c1)-c1c(c(C(=O)N3[C@@H](C)CNC(=O)[C@@H]3C)nn1-c1cc(Cl)cc(Cl)c1)CC2` [Compound 8-87], with 8.14 nM; and `COc1cc2c(cc1OC(C)C)-c1c(c(C(=O)N3CCOCC3(C)C)nn1-c1cc(Cl)cc(Cl)c1)CC2` [Compound 9-08], with 16.2 nM.
With `COc1cc2c(cc1-c1cncc(C(N)=O)c1)-c1c(c(C(=O)N3CCOCC3(C)C)nn1-c1ncccn1)CC2` [Compound 10-08], the IC50 was found to be 400 nM.
With `COc1cc2c(cc1-c1cncc(C(N)=O)c1)-c1c(c(C(=O)N3CCN(C(C)C)CC3(C)C)nn1-c1cc(Cl)cc(Cl)c1)CC2` [Compound 8-61, 5-(1-(3,5-dichlorophenyl)-3-(4-isopropyl-2,2-dimethylpiperazine-1-carbonyl)-7-methoxy-4,5-dihydro-1H-benzo[g]indazol-8-yl)nicotinamide] the figure was 192 nM; with `CCC1C(=O)NCCN1C(=O)c1nn(-c2ccccn2)c2c1CCc1ccc(-c3cccnc3)cc1-2` (stereo not shown) [Compound 8-78], 2430 nM.
